What all share (experiment): Cell viability assay (CCK-8)
Type in all cases: cell-based, Human

The test system of one experiment is COLO205. The protocol: (§1) PTE or RE were dissolved in DMSO and diluted with culture medium to 1–100 μM. The final concentration of DMSO was less than 0.1%, and 0.1% DMSO as negative control. CPT, as Top1 inhibitor, was diluted to 0.5 μM [36, 37], and FM, as Tdp1 inhibitor was diluted to 25 μM [38]. Exponentially growing cells were seeded in 96-well plates (5 × 10^3 cells/well) for 12 h. Various drugs were added separately and incubated for 24, 48, and 72 h. Cell viability was determined by CCK-8 (Beyotime Biotechnology, Shanghai, China) assay. […]
(§2) The drug concentration required for inhibiting cell proliferation by 50% (IC50) was determined by interpolation from dose-response curves.

Another experiment concerns HCT-116. The protocol: as §1, §2
The test system of another experiment is LoVo. Here is the method:
as §1, §2

Another experiment concerns CL187. Here is the method: as §1, §2
The next experiment relates to HCT-8. The protocol: as §1, §2

What is called IC50 is the midpoint of a concentration-inhibition curve. Higher therefore signals a need for much substance.

For `COc1cc(/C=C/c2ccc(O)cc2)cc(OC)c1` [PTE, 3,5-dimethoxy-4′-hydroxy-trans-stilbene], the IC50 in the experiment on COLO205 (COLO205, 72 h) is less than 30 µM; in the experiment with COLO205 (COLO205, 72 h, listed as Pterostilbene), 13.6 ± 6.1 µM; with COLO205 (Homo sapiens, COLO 205, 24 h, COLO205, 24 h) it was 44.4 ± 16.7 µM; in the experiment with COLO205 (Homo sapiens, COLO 205, 48 h, COLO205, 48 h), 24.5 ± 9.13 µM; in the experiment on HCT-116 (HCT-116, 72 h, listed as Pterostilbene) it was 21.4 ± 6.79 µM; in the experiment with HCT-116 (Homo sapiens, HCT-116, 24 h), 31.2 ± 10.2 µM. The IC50 in the experiment on HCT-116 (Homo sapiens, HCT-116, 48 h) was 15.4 ± 4.49 µM; with HCT-116 (Homo sapiens, HCT-116, 72 h), less than 30 µM; with LoVo (72 h) it was less than 30 µM; in the experiment on LoVo (72 h, listed as Pterostilbene), 12 ± 4.01 µM; with LoVo (Homo sapiens, 24 h), 106 ± 28.6 µM; with LoVo (Homo sapiens, 48 h) it was 14.2 ± 4.84 µM. Besides, the IC50 is less than 30 µM in the experiment with CL187 (CL187, 72 h); 14.4 ± 2.93 µM with CL187 (CL187, 72 h, listed as Pterostilbene); 24.2 ± 11.6 µM in the experiment with CL187 (Homo sapiens, 24 h, CL187, 24 h); 13.8 ± 4.7 µM with CL187 (Homo sapiens, 48 h, CL187, 48 h); 25 ± 6.62 µM in the experiment on HCT-8 (HCT-8, 72 h, listed as Pterostilbene); 29.9 ± 10.6 µM in the experiment with HCT-8 (Homo sapiens, HCT-8, 24 h). The IC50 in the experiment with HCT-8 (Homo sapiens, HCT-8, 48 h) was 25.4 ± 8.25 µM; with HCT-8 (Homo sapiens, HCT-8, 72 h), less than 30 µM.

The values are drawn from PMC8391236, “Effect of Pterostilbene, a Natural Derivative of Resveratrol, in the Treatment of Colorectal Cancer through Top1/Tdp1-Mediated DNA Repair Pathway” (Cancers, 2021).
